The test system of this assay is r(CUG)12-MBNL1 complex. The assay can be described thus: Inhibition of the r(CUG)12-MBNL1 complex measured by TR-FRET. It is filed as biochemical. The following applies: 80 nM RNA, 60 nM MBNL1-His6. (In TR-FRET formats the signal depends on donor and acceptor labels being close together.)

With `O=C(O)c1ccc2nc(-c3ccc(-c4nc5ccc(C(=O)NCCN6CCCCC6)cc5[nH]4)cc3)[nH]c2c1` [Compound 43, 2-(4-(6-((2-(piperidin-1-yl)ethyl)carbamoyl)-1H-benzo[d]imidazol-2-yl)phenyl)-1H-benzo[d]imidazole-6-carboxylic Acid], the IC50 (usually the concentration at which inhibition is half-maximal) (Table L) was over 200 µM.
As for `CN(C)CCCOc1ccc2nc(-c3ccc(-c4nc5ccc(OCCCN(C)C)cc5n4C)cc3)[nH]c2c1` [Compound 312], the IC50 (Table M) is over 200 µM.
On the same count and under the same terms, next, `CN(C)CCCOc1ccc2nc(-c3ccc(-c4nc5ccc(OCCCCO)cc5[nH]4)cc3)[nH]c2c1` [Compound 224]: 63.4 µM; `CN(C)CCCOc1ccc2nc(-c3ccc(-c4nc5ccc(OCCCN=[N+]=[N-])cc5[nH]4)cc3)[nH]c2c1` [Compound 235, 3-((2-(4-(6-(3-azidopropoxy)-1H-benzo[d]imidazol-2-yl)phenyl)-1H-benzo[d]imidazol-6-yl)oxy)-N,N-dimethylpropan-1-amine]: 78.2 µM.
As for `CN(C)CCNC(=O)c1ccc(-c2nc3cc(-c4ccc5[nH]c(-c6ccc(C(=O)NCCCCCCCCCCNC(=O)c7ccc(-c8nc9cc(-c%10ccc%11[nH]c(-c%12ccc(C(=O)NCCN(C)C)cc%12)nc%11c%10)ccc9[nH]8)cc7)cc6)nc5c4)ccc3[nH]2)cc1` [Compound 424], half-maximal inhibition (Table M) (IC50) was put at 5.82 µM. This IC50 lies about 13-fold lower than the previous one.
In turn, `Cc1cc(-c2nc3cc(-c4ccc5[nH]c(-c6cc(C)c(OCCCN(C)C)c(C)c6)nc5c4)ccc3[nH]2)cc(C)c1O` [Compound 361] had an IC50 (Table M) of 9.64 µM.
Same read-out and setting: next, `CN(C)CCCOc1ccc2nc(-c3ccc(-c4nc5ccc(OCCCN(C)C)cc5[nH]4)nn3)[nH]c2c1` [Compound 292]: 14 µM.
The same measure, in the same setting: the result for `CN(C)CCNC(=O)c1ccc(-c2nc3ccc(-c4ccc5nc(-c6ccc(C(=O)N7CCCC8C9CCCN(C(=O)c%10ccc(-c%11nc%12ccc(-c%13ccc%14nc(-c%15ccc(C(=O)NCCN(C)C)cc%15)[nH]c%14c%13)cc%12[nH]%11)cc%10)C9CCC87)cc6)[nH]c5c4)cc3[nH]2)cc1` (centres unmarked) [Compound 452] reads 3.1 µM; that for `CN(C)CCNC(=O)c1ccc(-c2nc3ccc(-c4ccc5nc(-c6ccc(C(=O)N[C@H]7CCN(C(=O)c8ccc(-c9nc%10ccc(-c%11ccc%12nc(-c%13ccc(C(=O)NCCN(C)C)cc%13)[nH]c%12c%11)cc%10[nH]9)cc8)C7)cc6)[nH]c5c4)cc3[nH]2)cc1` [Compound 455], 3.8 µM; that for `[N-]=[N+]=NCCCOc1ccc(-c2nc3cc(-c4ccc5[nH]c(-c6ccc(OCCCN)cc6)nc5c4)ccc3[nH]2)cc1` [Compound 379], 28.8 µM.
Still for that read-out and setting: next, `CN(C)Cc1cn(CCOc2ccc3nc(-c4ccc(-c5nc6ccc(OCCn7cc(CN(C)C)nn7)cc6[nH]5)cc4)[nH]c3c2)nn1` [Compound 227]: 120 µM.
The compound `N#Cc1ccc2nc(-c3ccc(-c4nc5ccc(C#N)cc5[nH]4)cc3)[nH]c2c1` [Compound 9, 2,2′-(1,4-phenylene)bis(1H-benzo[d]imidazole-6-carbonitrile)] gave a half-inhibitory concentration (IC50) (Table L) of 26 µM.
Still for that read-out and setting: next, `Cn1c(-c2ccc(-c3nc4cc(Br)ccc4n3C)cc2)nc2cc(Br)ccc21` [Compound 89, 1,4-bis(5-bromo-1-methyl-1H-benzo[d]imidazol-2-yl)benzene]: over 200 µM.
The same measure, in the same setting: next, `CN(C)CCNC(=O)c1ccc2nc(-c3ccc(-c4nc5ccc(C(=O)NCCN(C)CCCCc6cn(CCCN)nn6)cc5[nH]4)cc3)[nH]c2c1` [Compound 74]: 6.7 µM.
As to `COc1c(-c2nc3ccc(OCCCN(C)C)cc3[nH]2)ccc(-c2nc3ccc(OCCCN(C)C)cc3[nH]2)c1OC` [Compound 303, 3,3′-(((2,3-dimethoxy-1,4-phenylene)bis(1H-benzo[d]imidazole-2,6-diyl))bis(oxy))bis(N,N-dimethylpropan-1-amine)], the IC50 (Table M) was over 200 µM.
Same read-out and setting: the result for `C[C@@H](C(=O)N(C)[C@@H](C)C(=O)N(C)[C@@H](C)C(=O)N(C)[C@@H](C)C(=O)N(C)[C@@H](C)C(=O)N(CCCCN(C)C(=O)c1ccc(-c2nc3cc(-c4ccc5[nH]c(-c6ccc(C(=O)NCCN(C)C)cc6)nc5c4)ccc3[nH]2)cc1)CC(N)=O)N(C)C(=O)c1ccc(-c2nc3cc(-c4ccc5[nH]c(-c6ccc(C(=O)NCCN(C)C)cc6)nc5c4)ccc3[nH]2)cc1` [Compound 417] reads 9.24 µM; that for `CN(C)CCCOc1cccc2nc(-c3ccc(-c4nc5cccc(O)c5[nH]4)cc3)[nH]c12` [Compound 216, 2-(4-(7-(3-(dimethylamino)propoxy)-1H-benzo[d]imidazol-2-yl)phenyl)-1H-benzo[d]imidazol-7-ol], 125 µM.
Where the note is “Table M”, `OCCOc1cc(-c2nc3ccc(O)cc3[nH]2)ccc1-c1nc2ccc(O)cc2[nH]1` [Compound 261] displayed an IC50 of 74.1 µM. Against the preceding compound, the IC50 is about 1.7-fold lower.
Still for that read-out and setting: the result for `CCCCCOc1ccc(-c2nc3cc(-c4ccc5[nH]c(-c6ccc(C(=O)NCCN(C)C)cc6)nc5c4)ccc3[nH]2)cc1` [Compound 392] reads 18.3 µM.
With `Nc1ccc2nc(-c3ccc(-c4nc5ccc(Nc6ncccn6)cc5[nH]4)cc3)[nH]c2c1` [Compound 5, 2-(4-(5-amino-1H-benzo[d]imidazol-2-yl)phenyl)-N-(pyrimidin-2-yl)-1H-benzo[d]imidazol-5-amine], where the note is “Table L”, half-maximal inhibition (IC50) was put at 76 µM.
Compound `CN(C)CCCCOc1ccc(-c2nc3cc(-c4ccc5[nH]c(-c6ccc(O)cc6)nc5c4)ccc3[nH]2)cc1` [Compound 363] yielded a half-maximal inhibitory concentration (IC50) (Table M) of 18.7 µM.
Regarding `COCCn1c(-c2ccc(-c3nc4cc(OCCCN(C)C)ccc4[nH]3)cc2)nc2cc(OCCCN(C)C)ccc21` [Compound 329], where the note is “Table M”, the 50% inhibitory concentration (IC50) is over 200 µM.
Compound `CN(C)CCCOc1ccc(-c2nc3cc(-c4ccc(C(=O)NCCN(C)CCN)cc4)ccc3[nH]2)cc1` [Compound 395] displayed an IC50 (Table M) of over 200 µM.
Same read-out and setting: next, `CN(C)CCCOc1ccc2nc(-c3ccc(-c4nc5ccc(OCCCC(=O)O)cc5[nH]4)cc3)[nH]c2c1` [Compound 248, 4-((2-(4-(5-(3-(dimethylamino)propoxy)-1H-benzo[d]imidazol-2-yl)phenyl)-1H-benzo[d]imidazol-5-yl)oxy)butanoic acid]: over 200 µM.
In turn, `c1cn(-c2ccc(-c3nc4cc(-c5ccc6[nH]c(-c7ccc(-n8ccnc8)cc7)nc6c5)ccc4[nH]3)cc2)cn1` [Compound 107] displayed a half-inhibitory concentration (IC50) (Table L) of over 200 µM.
Still for that read-out and setting: the result for `CCOC(CNC(=N)Nc1ccc2nc(-c3ccc(-c4nc5ccc(NC(=N)NCC(OCC)OCC)cc5[nH]4)cc3)[nH]c2c1)OCC` [Compound 18, 1,1′-(2,2′-(1,4-phenylene)bis(1H-benzo[d]imidazole-5,2-diyl))bis(3-(2,2-diethoxyethyl)guanidine)] reads 35 µM; that for `Cn1c(-c2ccc(-c3nc4ccc(NC(=N)N)cc4n3C)cc2)nc2ccc(NC(=N)N)cc21` [Compound 88], over 200 µM.
For `CN(C)CCCOc1ccc2nc(-c3ccc(-c4nc5ccc(C(=O)NCCN(C)C)cc5[nH]4)cc3)[nH]c2c1` [Compound 238], the half-maximal inhibitory concentration (IC50) (Table M) amounted to 10 µM.
`CN(C)CCN(C)CCOc1ccc2nc(-c3ccc(-c4nc5ccc(OCCN(C)CCN(C)C)cc5[nH]4)cc3)[nH]c2c1` [Compound 211] had an IC50 (Table M) of 112 µM.
Compound `CN(C)CCSCCOc1ccc2nc(-c3ccc(-c4nc5ccc(OCCSCCN(C)C)cc5[nH]4)cc3)[nH]c2c1` [Compound 210] gave an IC50 (Table M) of 33.3 µM. This IC50 lies about 3.4-fold lower than the previous one.
The same measure, in the same setting: the result for `CN(C)CCNC(=O)c1ccc(-c2nc3ccc(-c4ccc5nc(-c6ccc(C(=O)NC[C@H]7CCCN7C(=O)c7ccc(-c8nc9ccc(-c%10ccc%11nc(-c%12ccc(C(=O)NCCN(C)C)cc%12)[nH]c%11c%10)cc9[nH]8)cc7)cc6)[nH]c5c4)cc3[nH]2)cc1` [Compound 453] reads 6.2 µM.
In the case of `Oc1ccc(-c2nc3cc(-c4ccc5[nH]c(-c6ccc(O)cc6)nc5c4)ccc3[nH]2)cc1` [Compound 105], for the setting “Table L”, the IC50 is over 200 µM.
`c1cc2nc(-c3ccc(-c4nc5ccc(C6=NCCN6)cc5[nH]4)cc3)[nH]c2cc1C1=NCCN1` [Compound 14, 1,4-bis(6-(4,5-dihydro-1H-imidazol-2-yl)-1H-benzo[d]imidazol-2-yl)benzene] had an IC50 (Table L) of 11 µM.
The compound `CN(C)CCNC(=O)c1ccc(-c2nc3cc(-c4ccc5[nH]c(-c6ccc(C(=O)NCCCCCCCNC(=O)c7ccc(-c8nc9cc(-c%10ccc%11[nH]c(-c%12ccc(C(=O)NCCN(C)C)cc%12)nc%11c%10)ccc9[nH]8)cc7)cc6)nc5c4)ccc3[nH]2)cc1` [Compound 421] came in with a half-maximal inhibitory concentration (IC50) (Table M) of 14.8 µM.
Same read-out and setting: next, `CN(C)CCNC(=O)c1ccc2nc(-c3ccc(-c4nc5ccc(C(=O)O)cc5[nH]4)cc3)[nH]c2c1` [Compound 319]: over 200 µM.
`O=C(N[C@H]1CN2CCC1CC2)c1ccc(-c2nc3cc(-c4ccc5[nH]c(-c6ccc(C(=O)N[C@H]7CN8CCC7CC8)cc6)nc5c4)ccc3[nH]2)cc1` [Compound 342] showed a half-maximal inhibitory concentration (IC50) (Table M) of 4.38 µM.
Where the note is “Table L”, `CNCCNC(=O)c1ccc2nc(-c3ccc(-c4nc5ccc(C(=O)NCCNC)cc5[nH]4)cc3)[nH]c2c1` [Compound 28, 2,2′-(1,4-phenylene)bis(N-(2-(methylamino)ethyl)-1H-benzo[d]imidazole-6-carboxamide)] gave an IC50 of 12.3 µM.
Turning to `CN(C)CCNC(=O)c1ccc(-c2nc3ccc(-c4ccc5nc(-c6ccc(C(=O)NCCOCCOCCOCCOCc7cn(CCCNCC(=O)N8CCCC8C(=O)N8CCC[C@H]8C(=O)N(CCCn8cc(COCCOCCOCCOCCNC(=O)c9ccc(-c%10nc%11ccc(-c%12ccc%13nc(-c%14ccc(C(=O)NCCN(C)C)cc%14)[nH]c%13c%12)cc%11[nH]%10)cc9)nn8)CC(N)=O)nn7)cc6)[nH]c5c4)cc3[nH]2)cc1` (some centres unmarked) [Compound 438], the half-maximal inhibitory concentration (IC50) (Table M) was over 200 µM.
In the case of `CN(C)CCNC(=O)c1ccc(-c2nc3cc(-c4ccc5[nH]c(-c6ccc(C(=O)NCCCCCNC(=O)c7ccc(-c8nc9cc(-c%10ccc%11[nH]c(-c%12ccc(C(=O)NCCN(C)C)cc%12)nc%11c%10)ccc9[nH]8)cc7)cc6)nc5c4)ccc3[nH]2)cc1` [Compound 414], where the note is “Table M”, 8.16 µM corresponded to half-maximal inhibition (IC50).
On the same count and under the same terms, next, `CN(C)CCCOc1ccc2nc(-c3ccc(-c4nc5ccc(SCCCN(C)C)cc5[nH]4)cc3)[nH]c2c1` [Compound 228, 3-((2-(4-(6-(3-(dimethylamino)propoxy)-1H-benzo[d]imidazol-2-yl)phenyl)-1H-benzo[d]imidazol-6-yl)thio)-N,N-dimethylpropan-1-amine]: 47.1 µM.
As to `Cn1c(-c2ccc(-c3nc4ccc(NC(=N)N)cc4n3C)cc2)nc2cc(NC(=N)N)ccc21` [Compound 87], the IC50 (Table L) was over 200 µM.

The values above are taken from patent US10961202B2, “Bis-benzimidazole compounds and methods of using the same” (THE SCRIPPS RESEARCH INSTITUTE, priority 2017, dated 2021).
